Source: the supplement of paper PMC11061612

Tests used:
[1] = tested on: KMRC-1 (Kidney Carcinoma); assay: Bliss excess, mean over the matrix (fraction); higher = more synergy
In short: (§1)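 Cell lines grown in DMEM/F12 or RPMI with 10% FBS were plated in 1536-well plates and held 24 hours at 37°C, 5% CO2 before 72 hours of exposure to two-drug dose matrices, with DMSO typically at 0.2%. CellTiter-Glo 2.0 luminescence gave viability, which was converted to inhibition. Vehicle wells were set to 0 and blank wells to 1. Combination Emax is the second-highest inhibition in the matrix, and Bliss excess is the observed combination effect minus the expected EA + EB − EA·EB, where EA and EB are the single-agent effects.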

[2] = tested on: MOG-G-UVW (Low Grade Glioma); assay: as above
In short: as §1

[3] = tested on: NCI-H522 (Lung Adenocarcinoma); assay: as above
In short: as §1

[4] = tested on: ML-2 (Acute Myeloid Leukemia); assay: as above
In short: as §1

[5] = tested on: SNU-387 (Hepatocellular Carcinoma); assay: as above
In short: as §1

[6] = tested on: COLO-668 (Small Cell Lung Carcinoma); assay: combination Emax (second highest fraction inhibited in the dose matrix, 72 h); higher = more inhibition; extreme values may be limits of the assay
In short: as §1

[7] = tested on: A4-Fuk (B-Lymphoblastic Leukemia); assay: as above
In short: as §1

[8] = tested on: KMRC-1 (Kidney Carcinoma); assay: as above
In short: as §1

[9] = tested on: MOG-G-UVW (Low Grade Glioma); assay: as above
In short: as §1

[10] = tested on: SW982 (Other Solid Carcinomas); assay: as above
In short: as §1

[11] = tested on: ME-180 (Cervical Carcinoma); assay: as above
In short: as §1

[12] = tested on: Mo-T (Other Blood Carcinomas); assay: as above
In short: as §1

[13] = tested on: SW872 (Other Solid Carcinomas); assay: as above
In short: as §1

[14] = tested on: MOLT-4 (T-Lymphoblastic Leukemia); assay: as above
In short: as §1

[15] = tested on: EFO-21 (Ovarian Carcinoma); assay: as above
In short: as §1

[16] = tested on: NCI-H1355 (Lung Adenocarcinoma); assay: as above
In short: as §1

[17] = tested on: ML-2 (Acute Myeloid Leukemia); assay: as above
In short: as §1

[18] = tested on: KGN (Other Solid Carcinomas); assay: as above
In short: as §1

[19] = tested on: SNU-387 (Hepatocellular Carcinoma); assay: as above
In short: as §1

COLO-679 (Melanoma) = assay: as above
In short: as §1
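For Bliss excess, mean over the matrix in this document: after 72 h of two-drug dosing.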

Compound	Bliss excess [1]	Bliss excess [2]	Bliss excess [3]	Bliss excess [4]	Bliss excess [5]	combination Emax [6]	combination Emax [7]	combination Emax [8]	combination Emax [9]	combination Emax [10]	combination Emax [11]	combination Emax [12]	combination Emax [13]	combination Emax [14]	combination Emax [15]	combination Emax [16]	combination Emax [17]	combination Emax [18]	combination Emax [19]	combination Emax (COLO-679 (Melanoma))
Cc1cc2ncnn2cc1Nc1ncc2c(n1)n(C1CCOCC1)c(=O)n2C [AZD7648] + O=C(c1cc(Cc2n[nH]c(=O)c3ccccc23)ccc1F)N1CCN(C(=O)C2CC2)CC1 [Olaparib] (first compound max 10 µM, 7x7, partner max 10 µM)	-0.015	-0.0052	-0.0308	-0.0218	-0.0303	0.144	0.428	0.184	0.316	0.503	0.154	0.382	0.11	0.233	0.264	0.297	0.419	0.601	0.259	0.128
CN(CCO)CC[C@H](CSc1ccccc1)Nc1ccc(S(=O)(=O)NC(=O)c2ccc(N3CCC([C@@H](O)c4ccccc4-c4ccc(Cl)cc4)CC3)cc2)cc1S(=O)(=O)C(F)(F)F [AZD4320] + Nc1ccn([C@@H]2O[C@H](CO)[C@@H](O)C2(F)F)c(=O)n1 [Gemcitabine] (first compound max 1 µM, 7x7, partner max 0.3 µM)	0.0287	-0.0147	-0.0645	0.0042	-0.0646	0.966	0.914	0.902	0.821	1	0.878	0.997	0.929	1	0.473	0.406	1		0.218	0.851
CN(CCO)CC[C@H](CSc1ccccc1)Nc1ccc(S(=O)(=O)NC(=O)c2ccc(N3CCC([C@@H](O)c4ccccc4-c4ccc(Cl)cc4)CC3)cc2)cc1S(=O)(=O)C(F)(F)F [AZD4320] + CCN(CCO)CCCOc1ccc2c(Nc3cc(CC(=O)Nc4cccc(F)c4)[nH]n3)ncnc2c1 [AZD2811] (first compound max 1 µM, 7x7, partner max 1 µM)	-0.0359	0.03	-0.0471	0.0557	-0.0127	0.915	0.417	0.144	0.509	0.814	0.624	0.768	0.142	1	0.196	0.239	1	0.497	0.227	0.275
CN(CCO)CC[C@H](CSc1ccccc1)Nc1ccc(S(=O)(=O)NC(=O)c2ccc(N3CCC([C@@H](O)c4ccccc4-c4ccc(Cl)cc4)CC3)cc2)cc1S(=O)(=O)C(F)(F)F [AZD4320] + C1CN(CCC1(C(=O)N[C@@H](CCO)C2=CC=C(C=C2)Cl)N)C3=NC=NC4=C3C=CN4 [Capivasertib] (first compound max 1 µM, 7x7, partner max 3 µM)	0.0094	-0.0318	-0.034	-0.0659	-0.0399		0.683	0.51	0.355	0.278	0.507	0.697	0.166	1	0.168	0.239	0.984	0.323	0.213	0.0975
Cc1nc(Nc2ncc(C(=O)Nc3c(C)cccc3Cl)s2)cc(N2CCN(CCO)CC2)n1 [Dasatinib] + CC(=O)Nc1cccc(-n2c(=O)n(C3CC3)c(=O)c3c(Nc4ccc(I)cc4F)n(C)c(=O)c(C)c32)c1 [Trametinib] (first compound max 2 µM, 7x7, partner max 1 µM)	-0.0009	-0.028	-0.0082	-0.122	0.0213	0.458	0.848	0.739	0.677	0.936	0.476	0.137	0.566	0.424	0.479	0.482	0.799	0.8	0.511	0.757
CN(CCO)CC[C@H](CSc1ccccc1)Nc1ccc(S(=O)(=O)NC(=O)c2ccc(N3CCC([C@@H](O)c4ccccc4-c4ccc(Cl)cc4)CC3)cc2)cc1S(=O)(=O)C(F)(F)F [AZD4320] + Cn1cnc2c(F)c(Nc3ccc(Br)cc3Cl)c(C(=O)NOCCO)cc21 [Selumetinib] (first compound max 1 µM, 7x7, partner max 3 µM)	0.0167	-0.0034	-0.0181	0.0723	0.0149	0.989	0.456	0.253	0.593	0.844	0.333	0.996	0.21	0.993	0.322	0.368	1	0.34	0.445	0.834
Cc1cc2ncnn2cc1Nc1ncc2c(n1)n(C1CCOCC1)c(=O)n2C [AZD7648] + CN(C)CCCOc1ccc(-c2ccc3ncc4c(c3c2)n(C2CCOCC2)c(=O)n4C)cn1 [AZD0156] (first compound max 10 µM, 7x7, partner max 1 µM)	0.0106	0.0206	-0.0127	-0.0154	-0.0188	0.133	0.575	0.24	0.379	0.36	0.326	0.3	0.264	0.246	0.332	0.482	0.374	0.661	0.275	0.2
N#Cc1cnc(Nc2cc(NC[C@H]3CNCCO3)c(C(F)(F)F)cn2)cn1 [SRA737] + C=CCn1c(=O)c2cnc(Nc3ccc(N4CCN(C)CC4)cc3)nc2n1-c1cccc(C(C)(C)O)n1 [AZD1775] (first compound max 10 µM, partner max 1 µM)	-0.0048	0.0652	-0.0295	0.0592	0.03	0.748	0.959	0.54	0.881	0.759	0.541	0.565	0.683	1	0.431	0.633	1	0.812	0.465	0.806
Cc1c2c(nn1C)CSCc1cc(n(C)n1)CSc1cc(c3ccccc3c1)OCCCc1c(C(=O)O)n(C)c3c-2c(Cl)ccc13 [AZD5991] + Cn1cnc2c(F)c(Nc3ccc(Br)cc3Cl)c(C(=O)NOCCO)cc21 [Selumetinib] (first compound max 1 µM, 7x7, partner max 3 µM)	-0.0396	-0.0869	-0.0194	0.0659	0.064	0.666	1	0.197	0.302	0.377	0.26	0.296	0.288	0.339	0.36	0.316	1	0.299	0.619	0.832
CN(CCO)CC[C@H](CSc1ccccc1)Nc1ccc(S(=O)(=O)NC(=O)c2ccc(N3CCC([C@@H](O)c4ccccc4-c4ccc(Cl)cc4)CC3)cc2)cc1S(=O)(=O)C(F)(F)F [AZD4320] + Cc1cc2ncnn2cc1Nc1ncc2c(n1)n(C1CCOCC1)c(=O)n2C [AZD7648] (first compound max 1 µM, 7x7, partner max 10 µM)	-0.0618	-0.0412	-0.0351	-0.0141	-0.041	0.867	0.619	0.222	0.191	0.371	0.26	0.578	0.113	0.98	0.224	0.269	0.966	0.437	0.178	0.142
Cc1cc2ncnn2cc1Nc1ncc2c(n1)n(C1CCOCC1)c(=O)n2C [AZD7648] + C=CCn1c(=O)c2cnc(Nc3ccc(N4CCN(C)CC4)cc3)nc2n1-c1cccc(C(C)(C)O)n1 [AZD1775] (first compound max 10 µM, partner max 1 µM)	0.0051	-0.0301	0.0181	-0.0199	-0.123	0.568	0.861	0.307	0.779	0.825	0.529	0.52	0.384	1	0.511	0.672	1	0.833	0.383	0.46
C[C@@H](c1ccc2nccn2c1)n1nnc2ncc(-c3cnn(C)c3)nc21 [Savolitinib] + CC1(C)CCC(CN2CCN(c3ccc(C(=O)NS(=O)(=O)c4ccc(NCC5CCOCC5)c([N+](=O)[O-])c4)c(Oc4cnc5[nH]ccc5c4)c3)CC2)=C(c2ccc(Cl)cc2)C1 [Venetoclax] (first compound max 1 µM, 7x7, partner max 1 µM)	-0.0899	0.0069	-0.0504	0.0096	-0.106	0.295	0.199	0.141	0.392	0.128	0.114	0.114	0.136	0.476	0.212	0.137	0.46	0.233	0.244	0.109
N#Cc1cnc(Nc2cc(NC[C@H]3CNCCO3)c(C(F)(F)F)cn2)cn1 [SRA737] + O=c1[nH]cc(F)c(=O)[nH]1 [5-Fluorouracil] (first compound max 10 µM, 7x7, partner max 20 µM)	0.0038	0.0006	-0.0524	-0.0476	0.0472	0.483	0.905	0.543	0.558	0.679	0.564	0.544		1	0.313	0.517	0.963	0.572	0.364	0.7
